The record followed here is ChEMBL document CHEMBL1139084, “N-Alkyl-N-alkyloxycarbonylaminomethyl (NANAOCAM) prodrugs of carboxylic acid containing drugs” (Bioorg Med Chem Lett, 2007).

Data set [1] in a line: Stability in aqueous buffer assessed as hydrolysis half life. The data set is classed as physicochemical.
Data set [2] can be described thus: Dissociation constant, pKa of the compound. The data set is classed as physicochemical.
Data set [3] can be described thus: Solubility in isopropyl myristate. The data set is classed as physicochemical.
Data set [4] can be described thus: Partition coefficient, log K between isopropyl myristate and pH 4.0 buffer. The data set is classed as ADME. The note with it: isopropyl myristate/pH 4.0 buffer.
For the next data set, the system named is Zone of skin. Kind of data set: Drug level in mouse skin. The data set is classed as ADME, tissue-based. The note with it: in vitro.
Data set [5] is described as follows: Permeability across hairless mouse skin from isopropyl myristate. The data set is classed as ADME, tissue-based, Zone of skin. The settings on record: read-out: permeability (converted).

Values after ≈ are worked out from the molar mass of the structure shown.

Regarding `CCn1cc(C(=O)OCN(C)C(=O)OC)c(=O)c2ccc(C)nc21`, the half-life in data set [1] was determined as 40 min. In addition, the pKa in data set [2] stood at 6.
On to `COC(=O)N(COC(=O)[C@@H](C)c1ccc2cc(OC)ccc2c1)c1ccc(OC)cc1`, for which the half-life in data set [1] is 49.8 min. Also, in data set [2], the pKa was 4.2.
For `COC(=O)N(C)COC(=O)C(C)c1ccc(CC(C)C)cc1` (centres undefined), in that order: 4.11 min and 4.41.
As to `COC(=O)N(COC(=O)[C@@H](C)c1ccc2cc(OC)ccc2c1)c1ccccc1`, the half-life in data set [1] is 120 min. This compound displayed a pKa in data set [2] of 4.2.
The matching figures for `CCOC(=O)c1ccc(N(COC(=O)[C@@H](C)c2ccc3cc(OC)ccc3c2)C(=O)OC)cc1`: 156 min and 4.2.
Consider `COC(=O)N(C)COC(=O)[C@@H](C)c1ccc2cc(OC)ccc2c1`, for which the half-life in data set [1] was 2 min. Besides, in data set [2], the pKa was 4.2. Also, the solubility in data set [3] worked out at 5.16 mM (≈ 1710 µg/mL). Besides, in data set [4], the “log K” value is recorded as 1.67. For the same compound, the Drug uptake in the data set with Zone of skin came to 4.21 µmol. In addition, in data set [5], the Papp is 5.28 ×10⁻⁶ cm/s.
With `COC(=O)N(C)COC(=O)Cc1c(C)n(C(=O)c2ccc(Cl)cc2)c2ccc(OC)cc12`, in data set [1], the half-life worked out at 3.65 min. In data set [2], this compound returned a pKa of 4.5.
`COc1ccc2cc([C@H](C)C(=O)O)ccc2c1` [NAPROXEN] registered a Drug uptake with Zone of skin of 2.71 µmol.

For orientation: half-life means the time needed for the level to fall by half in the phase considered. Broadly, the pKa is the negative logarithm of the acid dissociation constant. Read a low pKa as a group that gives up its proton readily. Usually solubility stands for the concentration that dissolves in the medium under given conditions.
